System: Folsomia candida
Experiment: Literature data on toxicity to Folsomia candida in soil
Assay type: in vivo
Settings: 28-day, artificial soil; 10% OM (sphagnum peat), pure; recalculated with logistic dose-response model from figures; ref Reynolds (2008)
Description: The LC50 and EC50 values for the toxicity of imidacloprid found in this study are within the range set by previous studies in our lab (Table S3). The values reported by Idinger ([2002]) for the toxicity of imidacloprid in the commercial formulation Confidor 70WP, tested in artificial soil, also are in the same range. Some LC50s reported in the literature, however, are somewhat higher, which could be explained by several factors. […] The use of an artificial soil with higher OM contents probably also explains the somewhat higher LC50 and EC50 values reported by Reynolds ([2008]). […] For two commercial formulations, EFSA ([2008]) found lower NOECs of 0.2–0.32 mg a.s./kg. Laboratory conditions such as temperature and light/dark regime may affect the metabolism of test animals, leading to differential toxicity of imidacloprid.
Table S3. Overview of data on the toxicity of imidacloprid and thiacloprid to Folsomia candida. All LC50 and EC50 values are in mg/kg dry soil and all tests were carried out on a 28-day exposure period. OM = organic matter.

Structure (SMILES): O=[N+]([O-])NC1=NCCN1Cc1ccc(Cl)nc1 [Imidacloprid, imidacloprid]
- EC50, recalculated: 0.26^& mg/kg dry soil
- LC50, recalculated: 0.86^& mg/kg dry soil
